ChEMBL document CHEMBL1129432, “Structure-activity relationships of a series of novel (piperazinylbutyl)thiazolidinone antipsychotic agents related to 3-[4-[4-(6-fluorobenzo[b]thien-3-yl)-1-piperazinyl]butyl]-2,5,5- trimethyl-4-thiazolidinone maleate” (J Med Chem, 1996)

Legend:
Rattus norvegicus [1] = assay: Compound at an intraperitoneal dose of 30 mg/Kg was tested for the inhibition of apomorphine-induced stereotypy in rat; assay type: functional; parameters: scale not given: the % may be the effect or the level left
[2] = biological target: T1, 5-hydroxytryptamine receptor 1A (Rattus norvegicus, UniProt P19327); assay: Binding affinity towards serotonin 5-HT1A receptor was determined in rat hippocampus using [3H]8-OH-DPAT as ligand; assay type: tissue-based
T1 sequence (P19327 whole entry): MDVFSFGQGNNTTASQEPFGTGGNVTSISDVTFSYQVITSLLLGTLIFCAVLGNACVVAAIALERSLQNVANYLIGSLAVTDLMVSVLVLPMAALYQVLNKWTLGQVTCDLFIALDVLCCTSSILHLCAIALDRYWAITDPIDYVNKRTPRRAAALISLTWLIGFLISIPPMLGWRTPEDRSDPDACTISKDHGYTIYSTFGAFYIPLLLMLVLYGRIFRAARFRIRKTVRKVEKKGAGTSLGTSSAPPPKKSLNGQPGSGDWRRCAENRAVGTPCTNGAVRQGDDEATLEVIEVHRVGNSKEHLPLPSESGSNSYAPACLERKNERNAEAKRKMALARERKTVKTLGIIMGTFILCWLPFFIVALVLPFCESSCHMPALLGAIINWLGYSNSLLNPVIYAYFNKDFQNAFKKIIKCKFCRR

[3] = biological target: Serotonin 2 (5-HT2) receptor (Rattus norvegicus, UniProt P30994+P08909+P14842); assay: Binding affinity towards serotonin 5-HT2 receptor was determined in rat cortex using [3H]spiperone as ligand
Rattus norvegicus [4] = assay: Compound at an intraperitoneal dose of 20 mg/Kg was tested for the inhibition of apomorphine-induced stereotypy in rat; assay type: functional; parameters: scale not given: the % may be the effect or the level left
D(2) dopamine receptor = D(2) dopamine receptor (Rattus norvegicus, UniProt P61169); assay: Binding affinity towards Dopamine receptor D2 was determined in rat striatum using [3H]- spiperone as radioligand; assay type: tissue-based
Rattus norvegicus [5] = assay: Anti psychotic effect Social interaction when compound administered at a doe of 2.5 mg/kg ip in rats; assay type: functional; settings: route intraperitoneal
Rattus norvegicus [6] = assay: Percentage change in Social interaction when compound administered at a doe of 5 mg/kg ip in rats; assay type: functional; settings: route intraperitoneal
Rattus norvegicus [7] = assay: Total activity (anti psychotic) when compound administered at a doe of 2.5 mg/kg ip in rats; assay type: functional; settings: route intraperitoneal
D(4) dopamine receptor [8] = biological target: T2, D(4) dopamine receptor (Homo sapiens, UniProt P21917); assay: Binding affinity against human Dopamine receptor D4.2 in CHO cells; assay type: cell-based
T2 sequence (P21917 whole entry): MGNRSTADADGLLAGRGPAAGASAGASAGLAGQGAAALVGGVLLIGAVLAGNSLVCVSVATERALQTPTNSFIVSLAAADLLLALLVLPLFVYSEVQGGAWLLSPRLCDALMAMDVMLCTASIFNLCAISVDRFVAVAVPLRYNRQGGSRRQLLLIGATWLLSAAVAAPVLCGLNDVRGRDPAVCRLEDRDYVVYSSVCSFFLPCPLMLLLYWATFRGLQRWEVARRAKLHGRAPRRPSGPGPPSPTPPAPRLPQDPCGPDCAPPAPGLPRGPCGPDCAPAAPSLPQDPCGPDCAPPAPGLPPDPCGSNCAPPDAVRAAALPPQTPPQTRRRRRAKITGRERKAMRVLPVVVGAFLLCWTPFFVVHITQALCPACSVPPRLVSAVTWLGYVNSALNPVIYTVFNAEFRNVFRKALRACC

Rattus norvegicus [9] = assay: Compound at an intraperitoneal dose of 50 mg/Kg was tested for the inhibition of apomorphine-induced stereotypy in rat; assay type: functional; parameters: scale not given: the % may be the effect or the level left
[10] = biological target: T3, 5-hydroxytryptamine receptor 2A (Homo sapiens, UniProt P28223); assay: Binding affinity towards human 5-HT2A receptor in BEK cells; assay type: cell-based
Rattus norvegicus [11] = assay: Percentage change in Total activity (anti psychotic) when compound administered at a doe of 5 mg/kg ip in rats; assay type: functional; settings: route intraperitoneal
Rattus norvegicus [12] = assay: Total activity (anti psychotic) when compound administered at a doe of 1.25 mg/kg ip in rats; assay type: functional; settings: route intraperitoneal
Rattus norvegicus [13] = assay: Percentage change in Total activity (anti psychotic) when compound administered at a doe of 2.5 mg/kg ip in rats; assay type: functional; settings: route intraperitoneal
Rattus norvegicus [14] = assay: Percentage change in Total activity (anti psychotic) when compound administered at a doe of 1.25 mg/kg ip in rats; assay type: functional; settings: route intraperitoneal
Rattus norvegicus [15] = assay: Percentage change in chronic single unit sampling when compound given at a dose of 10 mg/kg ip (Expt-2); assay type: functional; settings: route intraperitoneal
[16] = biological target: T3, 5-hydroxytryptamine receptor 2A; assay: Inhibitory concentration against human 5-HT2A receptor in BEK cells; assay type: cell-based
Rattus norvegicus [17] = assay: Anti psychotic effect Social interaction when compound administered at a doe of 1.25 mg/kg ip in rats; assay type: functional; settings: route intraperitoneal
Rattus norvegicus [18] = assay: Compound at an intraperitoneal dose of 60 mg/Kg was tested for the inhibition of apomorphine-induced stereotypy in rat; assay type: functional; parameters: scale not given: the % may be the effect or the level left
Rattus norvegicus [19] = assay: Total activity (anti psychotic) when compound administered at a doe of 5 mg/kg ip in rats; assay type: functional; settings: route intraperitoneal
Rattus norvegicus [20] = assay: Percentage change in Social interaction when compound administered at a doe of 1.25 mg/kg ip in rats; assay type: functional; settings: route intraperitoneal
Rattus norvegicus [21] = assay: Percentage change in chronic single unit sampling when compound given at a dose of 20 mg/kg ip in rats (Expt-2); assay type: functional; settings: route intraperitoneal
D(4) dopamine receptor [22] = biological target: T2, D(4) dopamine receptor
Description: Inhibitory concentration against human Dopamine receptor D4.2 in CHO cells

Rattus norvegicus [23] = assay: Percentage change in Social interaction when compound administered at a doe of 2.5 mg/kg ip in rats; assay type: functional; settings: route intraperitoneal
Rattus norvegicus [24] = assay: Percentage change in chronic single unit sampling when compound given at a dose of 10 mg/kg ip in rats; assay type: functional; settings: route intraperitoneal
Rattus norvegicus [25] = assay: Percentage change in chronic single unit sampling when compound given at a dose of 20 mg/kg ip in rats; assay type: functional; settings: route intraperitoneal
Rattus norvegicus [26] = assay: Anti psychotic effect Social interaction when compound administered at a doe of 5 mg/kg ip in rats; assay type: functional; settings: route intraperitoneal
Rattus norvegicus [27] = assay: Percentage change in chronic single unit sampling when compound given at a dose of 10 mg/kg ip in rats(Expt-2); assay type: functional; settings: route intraperitoneal
Rattus norvegicus [28] = assay: Percentage change in Total activity (anti psychotic) when compound administered at a doe of 10 mg/kg ip in rats; assay type: functional; settings: route intraperitoneal
Rattus norvegicus [29] = assay: Anti psychotic effect Social interaction when compound administered at a doe of 10 mg/kg ip in rats; assay type: functional; settings: route intraperitoneal
[30] = Compound at an intraperitoneal dose of 40 mg/Kg was tested for the inhibition of apomorphine-induced stereotypy in rat; assay type: functional; parameters: scale not given: the % may be the effect or the level left
Rattus norvegicus [31] = assay: Percentage change in Social interaction when compound administered at a doe of 10 mg/kg ip in rats; assay type: functional; settings: route intraperitoneal
Rattus norvegicus [32] = assay: Total activity (anti psychotic) when compound administered at a doe of 10 mg/kg ip in rats; assay type: functional; settings: route intraperitoneal
Rattus norvegicus [33] = assay: Total activity (anti psychotic) when compound administered at a doe of 0.125 mg/kg ip in rats; assay type: functional; settings: route intraperitoneal
Rattus norvegicus [34] = assay: Anti psychotic effect Social interaction when compound administered at a doe of 0.05 mg/kg ip in rats; assay type: functional; settings: route intraperitoneal
Rattus norvegicus [35] = assay: Anti psychotic effect Social interaction when compound administered at a doe of 0.125 mg/kg ip in rats; assay type: functional; settings: route intraperitoneal
Rattus norvegicus [36] = assay: Percentage change in chronic single unit sampling when compound given at a dose of 0.5 mg/kg ip in rats (Expt-2); assay type: functional; settings: route intraperitoneal
Rattus norvegicus [37] = assay: Percentage change in chronic single unit sampling when compound given at a dose of 0.5 mg/kg ip in rats; assay type: functional; settings: route intraperitoneal
Rattus norvegicus [38] = assay: Percentage change in Social interaction when compound administered at a doe of 0.05 mg/kg ip in rats; assay type: functional; settings: route intraperitoneal
Rattus norvegicus [39] = assay: Percentage change in Social interaction when compound administered at a doe of 0.125 mg/kg ip in rats; assay type: functional; settings: route intraperitoneal
Rattus norvegicus [40] = assay: Percentage change in Total activity (anti psychotic) when compound administered at a doe of 0.125 mg/kg ip in rats; assay type: functional; settings: route intraperitoneal
Rattus norvegicus [41] = assay: Percentage change in Total activity (anti psychotic) when compound administered at a doe of 0.05 mg/kg ip in rats; assay type: functional; settings: route intraperitoneal
[42] = Intraperitoneal effective dose required for inhibition of apomorphine-induced stereotypy in rat; assay type: functional; settings: ip

T3 sequence (P28223 whole entry): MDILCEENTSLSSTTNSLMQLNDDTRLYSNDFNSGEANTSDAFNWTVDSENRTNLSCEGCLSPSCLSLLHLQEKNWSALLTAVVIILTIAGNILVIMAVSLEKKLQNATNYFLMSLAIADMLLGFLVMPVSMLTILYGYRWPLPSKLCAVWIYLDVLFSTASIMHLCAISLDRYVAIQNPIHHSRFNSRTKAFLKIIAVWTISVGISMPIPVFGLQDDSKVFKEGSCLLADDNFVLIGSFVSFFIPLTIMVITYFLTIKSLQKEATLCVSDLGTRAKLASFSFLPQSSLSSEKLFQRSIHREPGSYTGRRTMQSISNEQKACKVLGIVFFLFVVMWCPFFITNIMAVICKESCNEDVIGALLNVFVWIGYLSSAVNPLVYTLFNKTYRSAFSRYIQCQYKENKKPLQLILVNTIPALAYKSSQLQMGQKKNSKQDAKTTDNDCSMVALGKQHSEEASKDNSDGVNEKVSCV
Chain of D(2) dopamine receptor (P61169 whole entry): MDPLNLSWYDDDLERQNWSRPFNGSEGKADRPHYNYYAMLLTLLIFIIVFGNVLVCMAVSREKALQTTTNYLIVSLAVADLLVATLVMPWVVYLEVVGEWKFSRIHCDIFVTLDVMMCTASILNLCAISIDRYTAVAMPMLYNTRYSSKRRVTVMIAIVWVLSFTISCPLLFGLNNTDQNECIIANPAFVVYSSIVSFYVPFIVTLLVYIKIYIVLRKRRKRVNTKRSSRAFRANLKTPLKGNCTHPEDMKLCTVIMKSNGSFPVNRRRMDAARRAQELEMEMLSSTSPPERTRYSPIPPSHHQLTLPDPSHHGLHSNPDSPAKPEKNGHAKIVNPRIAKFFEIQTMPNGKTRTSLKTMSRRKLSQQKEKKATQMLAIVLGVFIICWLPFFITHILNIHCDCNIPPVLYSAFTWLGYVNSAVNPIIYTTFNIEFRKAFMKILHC

SMILES	IC50 [2]	IC50 [3]	IC50 (D(2) dopamine receptor)	Ki (D(4) dopamine receptor [8])	Ki [10]	IC50 [16]	IC50 (D(4) dopamine receptor [22])	Social interaction (Rattus norvegicus [5])	Change (Rattus norvegicus [6])	Total activity (Rattus norvegicus [7])	Change (Rattus norvegicus [11])	Total activity (Rattus norvegicus [12])	Change (Rattus norvegicus [13])	Change (Rattus norvegicus [14])	Social interaction (Rattus norvegicus [17])	Total activity (Rattus norvegicus [19])	Change (Rattus norvegicus [20])	Change (Rattus norvegicus [21])	Change (Rattus norvegicus [23])	Change (Rattus norvegicus [25])	further results
CN1CCN(C2=Nc3cc(Cl)ccc3Nc3ccccc32)CC1 [CLOZAPINE]	–	–	–	–	–	–	–	–	14%	–	-18%	–	–	–	–	140.3	–	37%	–	-79%	Change (Rattus norvegicus [28]): -15%; Social interaction (Rattus norvegicus [29]): 151.3; Activity [30]: 33%; Change (Rattus norvegicus [31]): 40%; Total activity (Rattus norvegicus [32]): 146.3; Social interaction (Rattus norvegicus [26]): 123.3
O=C(CCCN1CCC(O)(c2ccc(Cl)cc2)CC1)c1ccc(F)cc1 [HALOPERIDOL]	–	–	–	–	–	–	–	–	–	–	–	–	–	–	–	–	–	–	–	–	Total activity (Rattus norvegicus [33]): 112.3; Social interaction (Rattus norvegicus [34]): 77.2; Social interaction (Rattus norvegicus [35]): 65.6; Change (Rattus norvegicus [36]): -30%; Change (Rattus norvegicus [37]): -35%; Change (Rattus norvegicus [38]): -19%; Change (Rattus norvegicus [39]): -32%; Change (Rattus norvegicus [40]): -22%; Change (Rattus norvegicus [41]): -11%; ED50 [42]: 0.6 mg/kg

The next lines start with results.

IC50 [2]	IC50 [3]	IC50 (D(2) dopamine receptor)	Ki (D(4) dopamine receptor [8])	Ki [10]	IC50 [16]	IC50 (D(4) dopamine receptor [22])	SMILES	Social interaction (Rattus norvegicus [5])	Change (Rattus norvegicus [6])	Total activity (Rattus norvegicus [7])	Change (Rattus norvegicus [11])	Total activity (Rattus norvegicus [12])	Change (Rattus norvegicus [13])	Change (Rattus norvegicus [14])	Social interaction (Rattus norvegicus [17])	Total activity (Rattus norvegicus [19])	Change (Rattus norvegicus [20])	Change (Rattus norvegicus [21])	Change (Rattus norvegicus [23])	Change (Rattus norvegicus [25])	further results
0.003 µM	0.0096 µM	0.154 µM	–	–	–	–	CC1SC2(CCCC2)C(=O)N1CCCCN1CCN(c2nsc3ccccc23)CC1 (centres undefined)	–	–	–	–	–	–	–	–	–	–	–	–	–	Activity (Rattus norvegicus [1]): 100%; Activity (Rattus norvegicus [4]): 10%
0.189 µM	0.131 µM	0.954 µM	0.117 µM	0.004 µM	0.008 µM	0.713 µM	CC1SC2(CCCC2)C(=O)N1CCCCN1CCN(c2csc3cc(F)ccc23)CC1 (centres undefined)	106.5	5%	106.3	-36%	146	18%	1%	108	82.1	13%	-8%	14%	-39%	Activity (Rattus norvegicus [9]): 20%; Change (Rattus norvegicus [15]): -12%; Activity (Rattus norvegicus [18]): 50%; Change (Rattus norvegicus [24]): -27%; Social interaction (Rattus norvegicus [26]): 97.3
0.061 µM	0.056 µM	–	0.005 µM	0.008 µM	0.017 µM	0.029 µM	CC1SC(C)(C)C(=O)N1CCCCN1CCN(c2csc3cc(F)ccc23)CC1 (centres undefined)	109.1	–	96	–	144.3	-32%	1%	114	–	14%	32%	9%	-57%	Change (Rattus norvegicus [27]): 14%; Change (Rattus norvegicus [24]): -34%
